Measured values as given in patent publication US20240336577A1, “PYRAZINE COMPOUND, AND METHOD OF PREPARATION AND USE THEREOF” (SHENZHEN OLIVE BIOPHARMACEUTICALS CO., LTD, priority 2020, published 2024).

What was measured:
Assay type in all cases: in vivo
[1] = tested on: db/db mice; test: Glucose and lipid metabolism in db/db mice, 56 d administration; settings: once/d 56 d, TMP 5.0 mg/kg, mean±SEM, n=6; for Creatinine / Total cholesterol / Triglyceride / Urea: Losartan 10 mg/kg; for Creatinine / Total cholesterol / Triglyceride / Urea / Glucose determination / High-density lipoprotein cholesterol / Low-density lipoprotein cholesterol: OLB-1/OLB-2 13.32 mg/kg; for Glycated hemoglobin / Glucose determination / High-density lipoprotein cholesterol / Low-density lipoprotein cholesterol: metformin 225 mg/kg/d; for Glycated hemoglobin: OLB-1/OLB-2 13.32 mg/kg (0.037 mmol/kg)
Description: Mice of a normal control group and model mice were given normal saline 10 ml/kg/d, metformin hydrochloride enteric-coated tablets 225 mg/kg/d, Losartan 10 mg/kg, TMP (5.0 mg/kg, 0.037 mmol/kg), and OLB-1 and OLB-2 (13.32 mg/kg, 0.037 mmol/kg), at a volume of 10 mL/kg, once/d, for continuous administration of 56 d, blood lipids and blood glucose related indexes were measured after blood collection. Data were presented as mean±SEM; n=6 per group. One-way ANOVA and multiple range test were adopted to show differences between the two groups. a, p<0.05 vs. db/db group; c, p<0.001 vs. db/db group.

[2] = tested on: db/db mice; test: Urinary protein level in db/db mice, 90 d administration; settings: once/d 90 d, OLB-1 11.7 mg/kg, OLB-2 11.67 mg/kg, FIG. 2
Description: Mice of a normal control group and model mice were given normal saline 10 ml/kg/d, Losartan 10 mg/kg, TMP (5.0 mg/kg, 0.037 mmol/kg), OLB-1 (11.7 mg/kg, 0.037 mmol/kg), and OLB-2 (11.67 mg/kg, […]), at a volume of 10 mL/kg, once/d, for continuous administration of 90 d, urine protein levels were measured after urine collection. Data were presented as mean±SEM; n=6 per group. One-way ANOVA and multiple range test were adopted to show differences between the two groups. a, p<0.05 vs. db/db group; c, p<0.001 vs. db/db group.

[3] = tested on: ALS (SOD-G93A) transgenic mice; test: Pole climbing test in ALS transgenic mice; settings: different dosages of OLB-1, OLB-2, riluzole 5 mg/kg, FIG. 6
From the text: The pole climbing test is generally used to evaluate a motor coordination ability and motor delay of the limbs in mice. A homemade wooden pole about 50 cm long and about 1 cm in diameter was wrapped with medical gauze to increase friction of the wooden pole. The wooden pole was put vertically on a horizontal table, the mouse tail was grabbed such that the mouse head was facing down, with limbs grabbing a top of the pole; after releasing the mouse tail, timing was started, and it was ensured that the mouse crawled downward without external force, and the time was recorded for the mouse to climb from the top of the pole to a bottom platform (a standard was that mouse hind limbs were landed on the ground). […] An average of the three pole climbing times of mice was calculated as a final pole climbing time. […] Data were presented as mean±SEM; n=10 per group. One-way ANOVA and multiple range test were adopted to show differences between the two groups. ***p<0.001 vs. WT (normal control) group; #p<0.05, ##p<0.01 vs. ALS (SOD-G93A) group.

SMILES | Creatinine [1] | Total cholesterol [1] | Triglyceride [1] | Urea [1] | Glycated hemoglobin [1] | Glucose determination [1] | High-density lipoprotein cholesterol [1] | Low-density lipoprotein cholesterol [1] | urinary protein levels [2] | pole climbing time / symptoms of bradykinesia [3]
Cc1nc(C)c(CNC(=O)OCCc2ccc(O)cc2)nc1C [OLB-2] | 46.28 ± 2.76(b) μmol/L | 7.38 ± 0.34(c) mM | 10.65 ± 0.54(b) mg/dL | 7.48 ± 0.35(c) mmol/L | 595.38 ± 52.47(c) nmol/L | 26.61 ± 1.15(c) mM | 1.87 ± 0.18(b) mM | 0.51 ± 0.03(c) mM | significantly reduced urinary protein levels | significantly improve the symptoms of bradykinesia
Cc1nc(C)c(COC(=O)OCCc2ccc(O)cc2)nc1C [OLB-1] | 48.7 ± 3.68(a) μmol/L | 8.36 ± 2.63(c) mM | 10.88 ± 0.92(b) mg/dL | 8.03 ± 0.61(c) mmol/L | 643.06 ± 61.53(c) nmol/L | 25.99 ± 4.46(c) mM | 1.81 ± 0.15(b) mM | 0.69 ± 0.04(c) mM | significantly reduced urinary protein levels | significantly improve the symptoms of bradykinesia
